Source: ChEMBL document CHEMBL3885881, “DrugMatrix”

Organism: Rattus norvegicus
Assay: DrugMatrix - Regimen: Daily Repeat
Type: toxicity, organism-based, Sprague-Dawley
Parameters: regimen Daily Repeat, gender Male, age 6-8 weeks
Conditions: in vivo, po, route oral GAVAGE, vehicle .5 % CMC; for ABSOLUTE BASOPHIL / ABSOLUTE EOSINOPHIL / ABSOLUTE LYMPHOCYTE / ABSOLUTE MONOCYTE / ABSOLUTE SEGMENTED NEUTROPHIL / BASOPHIL / EOSINOPHIL / ERYTHROCYTE COUNT / HEMATOCRIT / HEMOGLOBIN / LEUKOCYTE COUNT / LYMPHOCYTE / MEAN CORPUSCULAR HEMOGLOBIN / MEAN CORPUSCULAR HEMOGLOBIN CONCENTRATION / MEAN CORPUSCULAR VOLUME / MONOCYTE / NEUTROPHIL / NUCLEATED RED BLOOD CELLS / PLATELET COUNT: tissue Blood; for ALANINE AMINOTRANSFERASE / ALBUMIN / ALKALINE PHOSPHATASE / ASPARTATE AMINOTRANSFERASE / BLOOD UREA NITROGEN / CARBON DIOXIDE / CHLORIDE / CHOLESTEROL / CREATINE PHOSPHOKINASE / CREATININE / GLUCOSE / LACTATE DEHYDROGENASE / LIPASE / PHOSPHORUS / POTASSIUM / SODIUM / TOTAL BILIRUBIN / TOTAL PROTEIN / URIC ACID: tissue Plasma
[1] = 47 mg/kg, 120 h, dose level High, time 5 day
[2] = […], 72 h, dose 3.6 mg/Kg, dose level Low, time 3 day
[3] = […], 120 h, dose 3.6 mg/Kg, dose level Low, time 5 day

Compound: CN(C)C(=O)C(CCN1CCC(O)(c2ccc(Cl)cc2)CC1)(c1ccccc1)c1ccccc1 [LOPERAMIDE]
- ABSOLUTE BASOPHIL [1]: 0 CELLS/uL
- ABSOLUTE EOSINOPHIL [1]: 31.33 CELLS/uL
- ABSOLUTE LYMPHOCYTE [1]: 6903.67 CELLS/uL
- ABSOLUTE MONOCYTE [1]: 106 CELLS/uL
- ABSOLUTE SEGMENTED NEUTROPHIL [1]: 859 CELLS/uL
- BASOPHIL [1]: 0%
- EOSINOPHIL [1]: 0.33%
- ERYTHROCYTE COUNT [1]: 5.64 x10E6/uL
- HEMATOCRIT [1]: 35.1%
- HEMOGLOBIN [1]: 14.03 G/DL
- LEUKOCYTE COUNT [1]: 7.9 x10E3/uL
- LYMPHOCYTE [1]: 87.67%
- MEAN CORPUSCULAR HEMOGLOBIN [1]: 24.93 pg
- MEAN CORPUSCULAR HEMOGLOBIN CONCENTRATION [1]: 40 G/DL
- MEAN CORPUSCULAR VOLUME [1]: 62.3 fL
- MONOCYTE [1]: 1.33%
- NEUTROPHIL [1]: 10.67%
- NUCLEATED RED BLOOD CELLS [1]: 0 /100WBC
- PLATELET COUNT [1]: 1406.33 x10E3/uL
- ALANINE AMINOTRANSFERASE [1]: 93.33 u/L
- ALBUMIN [1]: 4.4 G/DL
- ALKALINE PHOSPHATASE [1]: 365.33 u/L
- ASPARTATE AMINOTRANSFERASE [1]: 91 u/L
- BLOOD UREA NITROGEN [1]: 16 mg/dL
- CARBON DIOXIDE [1]: 30.67 mmol/L
- CHLORIDE [1]: 100.67 MEQ/L
- CHOLESTEROL [1]: 58 mg/dL
- CREATINE PHOSPHOKINASE [1]: 208.67 u/L
- CREATININE [1]: 0.14 mg/dL
- GLUCOSE [1]: 162.67 mg/dL
- LACTATE DEHYDROGENASE [1]: 118.33 u/L
- LIPASE [1]: 7.67 u/L
- PHOSPHORUS [1]: 10.77 mg/dL
- POTASSIUM [1]: 4.92 MEQ/L
- SODIUM [1]: 146.5 MEQ/L
- TOTAL BILIRUBIN [1]: 0.17 mg/dL
- TOTAL PROTEIN [1]: 6.07 G/DL
- URIC ACID [1]: 0.83 mg/dL
- ABSOLUTE BASOPHIL [2]: 0 CELLS/uL
- ABSOLUTE EOSINOPHIL [2]: 192.67 CELLS/uL
- ABSOLUTE LYMPHOCYTE [2]: 13020.33 CELLS/uL
- ABSOLUTE MONOCYTE [2]: 102.67 CELLS/uL
- ABSOLUTE SEGMENTED NEUTROPHIL [2]: 1651 CELLS/uL
- BASOPHIL [2]: 0%
- EOSINOPHIL [2]: 1.33%
- ERYTHROCYTE COUNT [2]: 5.19 x10E6/uL
- HEMATOCRIT [2]: 33.57%
- HEMOGLOBIN [2]: 13.8 G/DL
- LEUKOCYTE COUNT [2]: 14.97 x10E3/uL
- LYMPHOCYTE [2]: 87%
- MEAN CORPUSCULAR HEMOGLOBIN [2]: 26.63 pg
- MEAN CORPUSCULAR HEMOGLOBIN CONCENTRATION [2]: 41.1 G/DL
- MEAN CORPUSCULAR VOLUME [2]: 64.7 fL
- MONOCYTE [2]: 0.67%
- NEUTROPHIL [2]: 11%
- NUCLEATED RED BLOOD CELLS [2]: 0 /100WBC
- PLATELET COUNT [2]: 1302 x10E3/uL
- ALANINE AMINOTRANSFERASE [2]: 64.33 u/L
- ALBUMIN [2]: 4.2 G/DL
- ALKALINE PHOSPHATASE [2]: 426 u/L
- ASPARTATE AMINOTRANSFERASE [2]: 86 u/L
- BLOOD UREA NITROGEN [2]: 16 mg/dL
- CARBON DIOXIDE [2]: 27 mmol/L
- CHLORIDE [2]: 102 MEQ/L
- CHOLESTEROL [2]: 83.33 mg/dL
- CREATINE PHOSPHOKINASE [2]: 331 u/L
- CREATININE [2]: 0.14 mg/dL
- GLUCOSE [2]: 168 mg/dL
- LACTATE DEHYDROGENASE [2]: 198.33 u/L
- LIPASE [2]: 10 u/L
- PHOSPHORUS [2]: 11.93 mg/dL
- POTASSIUM [2]: 5.72 MEQ/L
- SODIUM [2]: 142.8 MEQ/L
- TOTAL BILIRUBIN [2]: 0.13 mg/dL
- TOTAL PROTEIN [2]: 5.63 G/DL
- URIC ACID [2]: 1.23 mg/dL
- ABSOLUTE BASOPHIL [3]: 0 CELLS/uL
- ABSOLUTE EOSINOPHIL [3]: 0 CELLS/uL
- ABSOLUTE LYMPHOCYTE [3]: 11205 CELLS/uL
- ABSOLUTE MONOCYTE [3]: 32.67 CELLS/uL
- ABSOLUTE SEGMENTED NEUTROPHIL [3]: 1129 CELLS/uL
- BASOPHIL [3]: 0%
- EOSINOPHIL [3]: 0%
- ERYTHROCYTE COUNT [3]: 5.52 x10E6/uL
- HEMATOCRIT [3]: 35.23%
- HEMOGLOBIN [3]: 14.13 G/DL
- LEUKOCYTE COUNT [3]: 12.37 x10E3/uL
- LYMPHOCYTE [3]: 91%
- MEAN CORPUSCULAR HEMOGLOBIN [3]: 25.63 pg
- MEAN CORPUSCULAR HEMOGLOBIN CONCENTRATION [3]: 40.13 G/DL
- MEAN CORPUSCULAR VOLUME [3]: 63.87 fL
- MONOCYTE [3]: 0.33%
- NEUTROPHIL [3]: 8.67%
- NUCLEATED RED BLOOD CELLS [3]: 0 /100WBC
- PLATELET COUNT [3]: 1068 x10E3/uL
- ALANINE AMINOTRANSFERASE [3]: 58.33 u/L
- ALBUMIN [3]: 4.3 G/DL
- ALKALINE PHOSPHATASE [3]: 376 u/L
- ASPARTATE AMINOTRANSFERASE [3]: 86.67 u/L
- BLOOD UREA NITROGEN [3]: 13.67 mg/dL
- CARBON DIOXIDE [3]: 33 mmol/L
- CHLORIDE [3]: 101.67 MEQ/L
- CHOLESTEROL [3]: 67.67 mg/dL
- CREATINE PHOSPHOKINASE [3]: 233.67 u/L
- CREATININE [3]: 0.2 mg/dL
- GLUCOSE [3]: 140.33 mg/dL
- LACTATE DEHYDROGENASE [3]: 157.33 u/L
- LIPASE [3]: 9.67 u/L
- PHOSPHORUS [3]: 12.57 mg/dL
- POTASSIUM [3]: 6.47 MEQ/L
- SODIUM [3]: 145.27 MEQ/L
- TOTAL BILIRUBIN [3]: 0.2 mg/dL
- TOTAL PROTEIN [3]: 6.07 G/DL
- URIC ACID [3]: 1.23 mg/dL
